Entries after “also recorded” stand apart in the source; their conditions may differ.
Assays:
[1] = tested on: MYCN; experiment: MYCN induction in conditional MYCN3 cell line (QPCR); assay type: cell-based; settings: 1 ug/ml doxorubicin
Protocol: In FIG. 1 using a conditional MYCN cells line MYCN3, neuroblastoma patients with high and low MYCN were simulated. […] Induced MYCN is functional as shown by alteration in cell cycle distribution 24 hours after exposure to doxorubicin. Chip-PCR results for E-boxes of two known MYCN target genes MIR17HG and MDM2 confirming the specificity of the immunoprecipitation and relative enrichment for MYCN target gene promoters.

[2] = tested on: CHLA-255 neuroblastoma tumors; experiment: In vivo orthotopic xenograft model of neuroblastoma; parameters: species or system mouse; settings: tumors over-expressing miR-140-5p vs control CHLA-255; Kruskal-Wallis p<0.01; n=9
Source text: FIG. 3 illustrates the impact of miR-140-5p on in vivo orthotopic xenograft model of neuroblastoma. *Kruskal-Wallis method p<0.01; mean±SEM; n=9 in miR-140-5p cohort, n=10 in all other cohorts. Using the contralateral kidney (*) for comparison the average tumor weight for each cohort+SEM.

[3] = tested on: CHLA255 neuroblastoma cell line; experiment: Soft agar colony formation (clonogenicity) assay; assay type: cell-based; settings: CHLA255, colony growth at 10 days, triplicate experiments
Protocol: (§1) […] sequences (SEQ ID NOS: 3-4), which mimic miR-140-5p wildtype (SEQ ID NO: 1) and mutant miR-140-5p (SEQ ID NO: 2), were transfected into CHLA255 neuroblastoma cell line upper-GFP vector. Table 1 identifies the nucleotide sequences of the wildtype and mutant microRNAs and their mimics. The altered nucleotides in the mutant sequences are shown in bold.
(§2) The impact of these sequences on these cells was measured by increase in absorbance from the MTT assay (FIG. 2A) and the ability to form colonies on a soft agar plate in a clonogenicity assay (FIG. 2B). Stable cell line expression of microRNAs with GFP were compared to control cells. […] Colony formation assays were carried out in soft agar-representative wells showing colony growth at 10 days. Colonies were stained and counted by eye or by digital image analysis software.

[4] = tested on: CHLA255 neuroblastoma cell line; experiment: MTT proliferation assay in CHLA255 neuroblastoma cells; assay type: cell-based; settings: CHLA255 stable cell line expressing microRNA with GFP, compared to control cells
Protocol: as §1, §2

COc1cccc2c1C(=O)c1c(O)c3c(c(O)c1C2=O)C[C@@](O)(C(=O)CO)C[C@@H]3O[C@H]1C[C@H](N)[C@H](O)[C@H](C)O1 [doxorubicin]
Increase in MYCN mRNA message level [1]: 20 fold

miR-140-5p: SEQ ID NO: 1, CAGUGGUUUUACCCUAUGGUAG (listed as RNA, chemistry not given here)
Average tumor weight [2]: significantly smaller than control; also recorded: significantly suppresses in vivo tumor growth and burden
Colony counts in soft agar [3]: significantly decrease colonies
Proliferation as measured by increase in absorbance from MTT assay [4]: consistently decrease the proliferation rates; also recorded: significantly decreases the proliferation
